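Values below derive from 48-hour exposures of cells grown in 96-well plates, with endpoints linearly interpolated between the two concentrations bracketing the appropriate inhibition level. Abbreviation: GI50, concentration required for 50% inhibition of growth.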 Activity calls are given as the source filed them. Rule as the data show it: active = GI50 up to about 1.1 µM and inactive = higher.
Key:
Assay in all cases: NCI-60 cell line screen, 48 h
[1] = tested on: M14
[2] = tested on: DU-145
[3] = tested on: NCI-H23
[4] = tested on: SF-539
[5] = tested on: HOP-62
[6] = tested on: NCI/ADR-RES
[7] = tested on: SK-MEL-28
[8] = tested on: 786-0
[9] = tested on: LOX IMVI
[10] = tested on: A498
[11] = tested on: PC-3
[12] = tested on: U-251
[13] = tested on: SN12C
[14] = tested on: MDA-MB-435
[15] = tested on: HCC 2998
[16] = tested on: SK-OV-3
[17] = tested on: OVCAR-4
[18] = tested on: UACC-62
[19] = tested on: NCI-H522

Measured: GI50

O=C(NC(Cl)(C(F)(F)F)C(F)(F)F)c1ccc(F)cc1
inactive: [1] > 100 µM | [2] > 100 µM | [3] > 100 µM | [4] > 100 µM | [5] > 100 µM | [6] > 100 µM | [7] > 100 µM | [8] > 100 µM | [9] > 100 µM | [10] > 100 µM | [11] > 100 µM | [12] > 100 µM | [13] > 100 µM | [14] > 100 µM | [15] > 100 µM | [16] > 100 µM | [17] > 100 µM

N#CC(c1ccccc1)N(CCOCCOCCN(C(=O)c1cccc2ccccc12)C(C#N)c1ccccc1)C(=O)c1cccc2ccccc12 (configuration not stated)
inactive: [1] > 100 µM | [2] > 100 µM | [3] > 100 µM | [4] > 100 µM | [6] > 100 µM | [7] > 100 µM | [8] > 100 µM | [9] > 100 µM | [18] > 100 µM | [10] > 100 µM | [11] > 100 µM | [12] > 100 µM | [13] > 100 µM | [14] > 100 µM | [15] > 100 µM | [16] > 100 µM | [17] > 100 µM

Brc1cccc(Nc2ncnc3sc4c(c23)CCC2(C4)OCCO2)c1
inactive: [1] 31.1 µM | [2] 7.28 µM | [3] 29.8 µM | [5] 52.4 µM | [19] 12.3 µM | [6] 22.3 µM | [8] 25.7 µM | [9] 18.6 µM | [18] 22.9 µM | [10] 15.3 µM | [11] 33.7 µM | [12] 35.6 µM | [13] 27.4 µM | [14] 28.2 µM | [15] 23.7 µM | [16] 32.1 µM | [17] 20.1 µM

COc1cc(Oc2nc3ccccc3nc2C(=O)O)cc(OC)c1OC
inactive: [1] > 100 µM | [2] > 100 µM | [3] > 100 µM | [5] > 100 µM | [19] > 100 µM | [6] > 100 µM | [7] > 100 µM | [8] > 100 µM | [9] > 100 µM | [18] > 100 µM | [10] > 100 µM | [11] > 100 µM | [12] > 100 µM | [14] > 100 µM | [15] > 100 µM | [16] > 100 µM | [17] > 100 µM

CC(/C=C/c1ccccc1)=N\NC(N)=S
inactive: [1] 26.5 µM | [2] 34.4 µM | [3] 74 µM | [4] 31.7 µM | [5] > 100 µM | [6] 27.9 µM | [7] > 100 µM | [8] 34 µM | [9] > 100 µM | [10] 22.2 µM | [11] 90.8 µM | [12] 40.5 µM | [13] 42.1 µM | [14] 28.1 µM | [15] 21.6 µM | [16] 45.4 µM

C=C1CCCCCCCCCCC1[S+]([O-])c1ccccc1 (configuration not stated)
inactive: [1] 27.7 µM | [2] 49.1 µM | [3] 58.5 µM | [4] 21 µM | [5] 60.8 µM | [6] 34.4 µM | [7] 50.2 µM | [8] 18.8 µM | [9] 28.8 µM | [18] 45.4 µM | [10] 38.6 µM | [11] 31.5 µM | [12] 21 µM | [13] 23.2 µM | [14] 23.9 µM | [15] > 100 µM | [16] 38 µM | [17] 54.5 µM

From ChEMBL document CHEMBL1201862, “PubChem BioAssay data set” (2004)
